According to US12312301B2, “Organosulfur compounds” (MARIPOSA THERAPEUTICS LTD., priority 2018, dated 2025):

Key:
Format in all cases: cell-based
[1] = system: Pseudomonas aeruginosa biofilm formation; assay: Minimum Biofilm Inhibition Concentration (MBIC) assay, crystal violet biofilm mass; details: for P. aeruginosa MBIC: % of Ajoene positive control IC50: IC50 relative to ajoene run in the same experiment, <100% = more effective than ajoene
Protocol: (§1) Compounds were assayed for their ability to inhibit S. aureus or P. aeruginosa biofilm formation as follows. All compounds were prepared as a 30 mM stock in DMSO and diluted in TSB to 48 μM (S. aureus) or 144 μM (P. aeruginosa). The compounds were further serially diluted two-fold from 48 μM to 0.75 μM (S. aureus) or 144 μM to 2.3 μM (P. aeruginosa) and added to a 96-well plate at 100 μl per well. Overnight cultures of bacteria were diluted to an OD600=0.07 in fresh TSB and 100 μl of the diluted bacterial culture was added to the compound containing wells. The bacteria were incubated in the presence of the compounds overnight at 37° C. After incubation, the planktonic bacteria were removed by three washes using H2O and the remaining biofilm was stained using crystal violet and quantified photometrically at A570. Absorbances corresponding to biofilm mass were plotted versus compound concentration and IC50 values were calculated. Reference: O'Toole GA. Microtiter Dish Biofilm Formation Assay. J. Vis. Exp. (2011).
(§2) MBIC assays of the compounds are carried out alongside ajoene for reference and standardization. The 1050 of ajoene against S. aureus and P. aeruginosa is well-defined and reproducible allowing ajoene to serve as an effective control for the experiment. As such, the 1050 calculated for the tested compounds are compared to the 1050 of ajoene in every experiment and are therefore represented as % of ajoene.
(§3) The compound and the other biofilm inhibitory agents were assayed for their inhibitory activity using the MBIC method as described in Example 4. Absorbances corresponding to biofilm mass were plotted versus concentration of compound and other biofilm inhibitory agents.

[2] = system: Staphylococcus aureus biofilm formation; assay: as above; details: for S. aureus MBIC: % of Ajoene positive control IC50: IC50 relative to ajoene run in the same experiment, <100% = more effective than ajoene
Protocol: as §1, §2, §3

[3] = system: HaCaT cells; assay: Scratch closure test; details: 5 μM, HaCaT monolayer; for scratch closure observed at 20 h: in line with EGF positive control; for scratch closure compared to vehicle control: P<0.0001 vs 1% DMSO vehicle
Protocol: HaCaT cells (aneuploidy immortal keratinocyte cell line) were seeded in a 96-well plate at a cell density of 5×10^4 cells per well and incubated overnight at 37° C., 5% CO2 and 95% humidity. Test and control compounds were prepared in 1% DMSO and diluted to a concentration of 5 μM in pre-warmed HaCaT cell media. Cells were washed with pre-warmed PBS and the monolayers mechanically injured by introducing a vertical cell-free area in each individual well, and washed again. Test and control compounds were added and all wells microscopically imaged for time point 0. Cells were incubated as described above and imaged after 20 hours. All conditions were tested with an N of 4 replicates. Scratch closure was analysed using ImageJ software and standard deviation calculated. Scratch closure area reduction was plotted using GraphPrism 8 software.

Structure (SMILES)	P. aeruginosa MBIC: % of Ajoene positive control IC50 [1]	S. aureus MBIC: % of Ajoene positive control IC50 [2]	also measured
C=CCSSC=CCS(=O)(=O)Cc1ccc(F)cc1	49.2 % of Ajoene	7 % of Ajoene	–
COC(=O)c1ccc(CSS/C=C/CS(=O)(=O)Cc2ccc(C(F)(F)F)cc2)cc1	34.7 % of Ajoene	20.5 % of Ajoene	–
O=S(=O)(CC=CSSCc1ccc(C(F)(F)F)cc1)Cc1ccc(C(F)(F)F)cc1 [test compound 1, 1-(trifluoromethyl)-4-{[(3-{[4-(trifluoromethyl)phenyl]methanesulfonyl}prop-1-en-1-yl)disulfanyl]methyl}benzene]	–	–	IC50 against Pseudomonas aeruginosa biofilm compared to ajoene ([1]; Example 4, FIG. 2, 144 μM to 2.3 μM, overnight 37° C.): lower 1050 than ajoene; IC50 against Staphylococcus aureus biofilm compared to ajoene ([2]; Example 4, FIG. 1, 48 μM to 0.75 μM, overnight 37° C.): lower 1050 than ajoene
COc1ccc(CSS/C=C\CS(=O)(=O)Cc2ccc(C(F)(F)F)cc2)cc1 [Test compound 3]	–	–	scratch closure observed at 20 h [3]: complete scratch closure; scratch closure compared to vehicle control [3]: enhanced scratch closure
COc1cccc(CSSC=CCS(=O)(=O)Cc2ccc(C(F)(F)F)cc2)c1	65.3 % of Ajoene	20 % of Ajoene	–
O=S(=O)(CC=CSSCC1CC1)CC1CC1	57.5 % of Ajoene	69.18 % of Ajoene	–
C=CCSSC=CCS(=O)(=O)Cc1ccc(C(F)(F)F)cc1 [drawing 51]	42.75 % of Ajoene	38.6 % of Ajoene	–
C=CCSSC=CCS(=O)(=O)Cc1ccc(C(F)(F)F)cc1 [test compound 2, 1-{[-3-(prop-2-en-1-yldisulfanyl)prop-2-ene-1-sulfonyl]methyl}-4-(trifluoromethyl)benzene]	–	–	inhibitory activity on P. aeruginosa biofilm compared to ajoene, cysteamine, gallium nitrate, HDMF, and C-30 ([1]; Example 6, FIG. 3): improved inhibitory activity; inhibitory activity on S. aureus biofilm compared to ajoene, cysteamine, gallium nitrate, HDMF, and C-30 ([2]; Example 6, FIG. 4): improved inhibitory activity
C=CCSSC=CCS(=O)(=O)Cc1ccc(S(C)(=O)=O)cc1	82 % of Ajoene	23 % of Ajoene	–
COc1ccc(CSS/C=C/CS(=O)(=O)Cc2ccc(C(F)(F)F)cc2)cc1	27.8 % of Ajoene	8.2 % of Ajoene	–
C=CCSS/C=C/CS(=O)(=O)Cc1ccc(C(F)(F)F)cc1	78.7 % of Ajoene	55.5 % of Ajoene	–
COc1ccc(CSSC=CCS(=O)(=O)Cc2ccc(C(F)(F)F)cc2)cc1	79 % of Ajoene	24 % of Ajoene	–
C=CCSSC=CCS(=O)(=O)Cc1ccc(OC)cc1	87 % of Ajoene	4 % of Ajoene	–
C=CCSS/C=C/C[S+]([O-])CC=C (stereo not shown) [E-ajoene]	–	–	scratch closure observed at 20 h [3]: complete scratch closure; scratch closure compared to vehicle control [3]: enhanced scratch closure
C=CCSSC=CCS(=O)(=O)Cc1ccco1	11.7 % of Ajoene	21.9 % of Ajoene	–
C=CCSSC=CCS(=O)(=O)Cc1cccs1	29.7 % of Ajoene	52 % of Ajoene	–
COc1ccc(CSSC=CCS(=O)(=O)Cc2ccccc2)cc1	56 % of Ajoene	75 % of Ajoene	–
C[S+]([O-])CCCCN=C=S (stereo not shown) [sulforaphane]	–	–	scratch closure observed at 20 h [3]: complete scratch closure; scratch closure compared to vehicle control [3]: enhanced scratch closure
COc1ccccc1CSSC=CCS(=O)(=O)Cc1ccc(C(F)(F)F)cc1	13.9 % of Ajoene	51 % of Ajoene	–
O=S(=O)(CC=CSSCc1ccc(C(F)(F)F)cc1)Cc1ccc(C(F)(F)F)cc1 [drawing 50]	45.3 % of Ajoene	28.6 % of Ajoene	–
